Measured values reported in patent US11667604B2, “Phenyl containing compound, intermediate thereof, preparation method therefor and application thereof” (SHANGHAI MODERN PHARMACEUTICAL ENGINEERING RESEARCH CENTER …, priority 2019, dated 2023).
Structures can show the parent of a compound that is named as a salt.

Test: Stability testing of carriers in solid form, residual amount determined by HPLC, and appearance
Format: physicochemical
Details: for Appearance: storage condition not specified
Procedure: The carrier of embodiment 1 was placed in solid form under normal temperature and normal light, normal temperature and away from light, 4° C. away from light and −18° C. away from light, respectively, and the residual amount of the carrier was measured after being placed for 1d, 3d, 7d, 30d, 60d, 90d and 120d, respectively, and the residual amount was determined by HPLC.
The sodium salt of N-(all-trans-retinoyl)-L-cysteic acid methyl ester was placed in solid form at normal temperature and normal light, at normal temperature and away from light, at 4° C. away from light and at −18° C. away from light respectively (other conditions are the same as those in embodiment 4), and the appearance and residual amount were tested after being placed for 1d, 3d, 7d and 30d, respectively, wherein the residual amount was determined by HPLC.

Appearance (0 d): Yellow powder
residual amount (4° C. away from light, 0 d): 99.54%
residual amount (4° C. away from light, 3 d): 93.76%
residual amount (4° C. away from light, 7 d): 89.09%
residual amount (4° C. away from light, 30 d): 79.69%
Appearance (3 d): Orange
Appearance (7 d): Brown viscous
Appearance (30 d): Dark brown viscous
residual amount (normal temperature and away from light, 0 d): 99.54%
residual amount (normal temperature and away from light, 3 d): 88.91%
residual amount (normal temperature and away from light, 7 d): 78.62%
residual amount (normal temperature and normal light, 0 d): 99.54%
residual amount (normal temperature and normal light, 3 d): 83.71%
residual amount (normal temperature and normal light, 7 d): 64.32%
residual amount (−18° C. away from light, 0 d): 99.54%
residual amount (−18° C. away from light, 3 d): 96.16%
residual amount (−18° C. away from light, 7 d): 94.17%
residual amount (−18° C. away from light, 30 d): 89.98%
SMILES: COC(=O)[C@H](CS(=O)(=O)O)NC(=O)/C=C(C)/C=C/C=C(C)/C=C/C1=C(C)CCCC1(C)C [sodium salt of N-(all-trans-retinoyl)-L-cysteic acid methyl ester]
